# Laboratory results: article PMC6533283, “Deciphering the regulatory and catalytic mechanisms of an unusual SAM-dependent enzyme” (Signal Transduction and Targeted Therapy, 2019)
# Where “and” joins values, the source holds several entries; their conditions need not be identical. Identical values can stand only once.
# B1: LepI-Δ15 (domain or fragment, Aspergillus flavus, UniProt B8NJH3 16-387, looked up)
# chain: QSTDQFGRAEINDALRELQYSLETPFDTVMRMSLDTCQVAVARIGSDLGLFKHLSQCASPQSAEELADHLGCGRELMSRLLRYMASVRMVQQTDDIKYISSNITQTLAVPGLEAGMRHAFENLWPVLMALPDFLAERKYPDIVDAKDTAFQKAFNTDQDCFHWLATQPTRIANFKVLLTDERTPNFLSTFPLEKELGSWSAEPEKALFVDIGGGMGHACIRLREKYPNQPGRVILQDLPPVLQAAQATLPLSGIESMPHNFHTPQPVQGAKFYFLRLILRDFPDHQALEILQNIVPAMDAESRIVIDDGVPPEKGARWAETGTDICIMSALGSKERTQRQWEELAAKAGLQLQALYQYTWPVVNAAMVFSLQ
# notes: LepI of Aspergillus flavus with an N-terminal deletion (Δ15, removes helix α1); N-terminal truncation designed from the structure to disrupt dimerization; also called α1 single deletion of LepI; α1 single deleted enzyme; source: E. coli, purified as described for LepI
# B2: leporin biosynthesis enzyme LepI (enzyme, Aspergillus flavus)
# chain: METVAAIKTLIQQLAQSTDQFGRAEINDALRELQYSLETPFDTVMRMSLDTCQVAVARIGSDLGLFKHLSQCASPQSAEELADHLGCGRELMSRLLRYMASVRMVQQTDDIKYISSNITQTLAVPGLEAGMRHAFENLWPVLMALPDFLAERKYPDIVDAKDTAFQKAFNTDQDCFHWLATQPTRIANFKVLLTDERTPNFLSTFPLEKELGSWSAEPEKALFVDIGGGMGHACIRLREKYPNQPGRVILQDLPPVLQAAQATLPLSGIESMPHNFHTPQPVQGAKFYFLRLILRDFPDHQALEILQNIVPAMDAESRIVIDDGVPPEKGARWAETGTDICIMSALGSKERTQRQWEELAAKAGLQLQALYQYTWPVVNAAMVFSLQ
# notes: LepI, SAM-dependent enzyme of the leporin biosynthesis gene cluster of Aspergillus flavus; codon-optimized gene in pET-15b between NdeI and XhoI; Homodimer in the asymmetric unit of the crystal; Endogenous SAM and MTA co-purified with the protein; A selenomethionine form was used for phasing; also called wild-type (WT) LepI; native-LepI; source: E. coli BL21 (DE3), purified (Ni resin, …)
# Columns and labels:
# LepI [1] = molecular target: T1, LepI (Aspergillus flavus, UniProt B8NJH3); assay: HPLC assay of retro-Claisen rearrangement of compound […]; type: biochemical; conditions: read-out: % inhibition at 0.5 mM
# T1 construct: codon-optimized gene in pET-15b (NdeI/XhoI), N-terminal His tag, E. coli BL21(DE3); homodimer; SAM and MTA partly copurify
# LepI [2] = molecular target: T1, LepI; assay: HPLC assay of retro-Claisen rearrangement of compound […], rescue of SAH/MTA inhibition; type: biochemical; conditions: 1 mM SI with 1 mM SAH or 1 mM MTA, 300 nM LepI, pH 8.0, 30 °C; SAM analogue, activator
# [3] = molecular target: the molecule itself; assay: SEC; analytical gel filtration, Superdex 200 Increase 10/30 GL, protein at 1 mg/mL, 20 mM Na2HPO4, 50 mM NaCl, pH 8.0; sizes by standard protein markers
# [4] = molecular target: the molecule itself; assay: crystal structure; LepI crystals grown in 0.15 M bis-Tris pH 7.0, 40% PEG 400; structures with SAM/MTA (1.7 Å), SAH (2.7 Å) and SAM/compound 1 (2.2 Å); two molecules in the asymmetric unit
molecule,measurement,setting,value
CSC[C@H]1O[C@@H](n2cnc3c(N)ncnc32)[C@H](O)[C@@H]1O [MTA],inhibition at 500 µM,LepI [1],30%
Nc1ncnc2c1ncn2[C@@H]1O[C@H](C[C@@H](N)CC[C@H](N)C(=O)O)[C@@H](O)[C@H]1O [Sinefungin],"HPLC assay of retro-Claisen rearrangement of compound 1, rescue of SAH/MTA inhib",LepI [2],both SAM and SI completely rescued LepI activity for retro-Claisen rearrangement
B1,stoichiometry N,[3],2 and 4
B2,binding result,[4],binds
